Results from ChEMBL document CHEMBL2429768, “Eco-friendly synthesis and antimicrobial activities of substituted-5-(1H-indol-3-yl)methylene)-2,2-dimethyl-1,3-dioxane-4,6-dione derivatives” (2013).
Converted amounts (≈) assume the structure as drawn.

Key:
Format in all cases: functional
[1] = system: Fusarium oxysporum; experiment: Antifungal activity against Fusarium oxysporum at 300 ug/ml after 72 hrs by agar well diffusion method; conditions: read-out: DIZ
[2] = system: Aspergillus niger; experiment: Antifungal activity against Aspergillus niger at 500 ug/ml after 72 hrs by agar well diffusion method; conditions: read-out: DIZ
[3] = system: Klebsiella pneumoniae; experiment: Antibacterial activity against Klebsiella pneumoniae after 24 hrs by agar well diffusion method
[4] = system: Bacillus subtilis; experiment: Antibacterial activity against Bacillus subtilis after 24 hrs by agar well diffusion method
[5] = system: Escherichia coli; experiment: Antibacterial activity against Escherichia coli ATCC 8739 at 50 ug/ml after 24 hrs by agar well diffusion method; conditions: ATCC 8739, 24 h, read-out: DIZ
[6] = system: Rhizoctonia solani; experiment: Antifungal activity against Rhizoctonia solani at 500 ug/ml after 72 hrs by agar well diffusion method; conditions: read-out: DIZ
[7] = system: Aspergillus niger; experiment: Antifungal activity against Aspergillus niger after 72 hrs by agar well diffusion method
[8] = system: Escherichia coli; experiment: Antibacterial activity against Escherichia coli ATCC 8739 at 100 ug/ml after 24 hrs by agar well diffusion method; conditions: ATCC 8739, 24 h, read-out: DIZ
[9] = system: Aspergillus flavus; experiment: Antifungal activity against Aspergillus flavus at 200 ug/ml after 72 hrs by agar well diffusion method; conditions: read-out: DIZ
[10] = system: Escherichia coli; experiment: Antibacterial activity against Escherichia coli ATCC 8739 at 200 ug/ml after 24 hrs by agar well diffusion method; conditions: ATCC 8739, 24 h, read-out: DIZ
[11] = system: Fusarium oxysporum; experiment: Antifungal activity against Fusarium oxysporum at 100 ug/ml after 72 hrs by agar well diffusion method; conditions: read-out: DIZ
[12] = system: Rhizoctonia solani; experiment: Antifungal activity against Rhizoctonia solani at 300 ug/ml after 72 hrs by agar well diffusion method; conditions: read-out: DIZ
[13] = system: Staphylococcus aureus; experiment: Antibacterial activity against Staphylococcus aureus ATCC 6538 at 300 ug/ml after 24 hrs by agar well diffusion method; conditions: ATCC 6538, 24 h, read-out: DIZ
[14] = system: Staphylococcus aureus; experiment: Antibacterial activity against Staphylococcus aureus ATCC 6538 at 200 ug/ml after 24 hrs by agar well diffusion method; conditions: ATCC 6538, 24 h, read-out: DIZ
[15] = system: Staphylococcus aureus; experiment: Antibacterial activity against Staphylococcus aureus ATCC 6538 at 100 ug/ml after 24 hrs by agar well diffusion method; conditions: ATCC 6538, 24 h, read-out: DIZ
[16] = system: Bacillus subtilis; experiment: Antibacterial activity against Bacillus subtilis at 100 ug/ml after 24 hrs by agar well diffusion method; conditions: read-out: DIZ
[17] = system: Aspergillus niger; experiment: Antifungal activity against Aspergillus niger at 200 ug/ml after 72 hrs by agar well diffusion method; conditions: read-out: DIZ
[18] = system: Staphylococcus aureus; experiment: Antibacterial activity against Staphylococcus aureus ATCC 6538 after 24 hrs by agar well diffusion method; conditions: ATCC 6538, 24 h
[19] = system: Aspergillus flavus; experiment: Antifungal activity against Aspergillus flavus at 500 ug/ml after 72 hrs by agar well diffusion method; conditions: read-out: DIZ
[20] = system: Rhizoctonia solani; experiment: Antifungal activity against Rhizoctonia solani at 100 ug/ml after 72 hrs by agar well diffusion method; conditions: read-out: DIZ
[21] = system: Klebsiella pneumoniae; experiment: Antibacterial activity against Klebsiella pneumoniae at 50 ug/ml after 24 hrs by agar well diffusion method; conditions: read-out: DIZ
[22] = system: Aspergillus flavus; experiment: Antifungal activity against Aspergillus flavus after 72 hrs by agar well diffusion method
[23] = system: Escherichia coli; experiment: Antibacterial activity against Escherichia coli ATCC 8739 at 500 ug/ml after 24 hrs by agar well diffusion method; conditions: ATCC 8739, 24 h, read-out: DIZ
[24] = system: Rhizoctonia solani; experiment: Antifungal activity against Rhizoctonia solani at 200 ug/ml after 72 hrs by agar well diffusion method; conditions: read-out: DIZ
[25] = system: Staphylococcus aureus; experiment: Antibacterial activity against Staphylococcus aureus ATCC 6538 at 500 ug/ml after 24 hrs by agar well diffusion method; conditions: ATCC 6538, 24 h, read-out: DIZ
[26] = system: Aspergillus niger; experiment: Antifungal activity against Aspergillus niger at 100 ug/ml after 72 hrs by agar well diffusion method; conditions: read-out: DIZ
[27] = system: Fusarium oxysporum; experiment: Antifungal activity against Fusarium oxysporum at 500 ug/ml after 72 hrs by agar well diffusion method; conditions: read-out: DIZ
[28] = system: Rhizoctonia solani; experiment: Antifungal activity against Rhizoctonia solani at 50 ug/ml after 72 hrs by agar well diffusion method; conditions: read-out: DIZ
[29] = system: Escherichia coli; experiment: Antibacterial activity against Escherichia coli ATCC 8739 after 24 hrs by agar well diffusion method; conditions: ATCC 8739, 24 h
[30] = system: Staphylococcus aureus; experiment: Antibacterial activity against Staphylococcus aureus ATCC 6538 at 50 ug/ml after 24 hrs by agar well diffusion method; conditions: ATCC 6538, 24 h, read-out: DIZ
[31] = system: Aspergillus flavus; experiment: Antifungal activity against Aspergillus flavus at 100 ug/ml after 72 hrs by agar well diffusion method; conditions: read-out: DIZ
[32] = system: Klebsiella pneumoniae; experiment: Antibacterial activity against Klebsiella pneumoniae at 500 ug/ml after 24 hrs by agar well diffusion method; conditions: read-out: DIZ
[33] = system: Rhizoctonia solani; experiment: Antifungal activity against Rhizoctonia solani after 72 hrs by agar well diffusion method
[34] = system: Fusarium oxysporum; experiment: Antifungal activity against Fusarium oxysporum at 50 ug/ml after 72 hrs by agar well diffusion method; conditions: read-out: DIZ
[35] = system: Aspergillus flavus; experiment: Antifungal activity against Aspergillus flavus at 300 ug/ml after 72 hrs by agar well diffusion method; conditions: read-out: DIZ
[36] = system: Klebsiella pneumoniae; experiment: Antibacterial activity against Klebsiella pneumoniae at 200 ug/ml after 24 hrs by agar well diffusion method; conditions: read-out: DIZ
[37] = system: Aspergillus niger; experiment: Antifungal activity against Aspergillus niger at 50 ug/ml after 72 hrs by agar well diffusion method; conditions: read-out: DIZ
[38] = system: Bacillus subtilis; experiment: Antibacterial activity against Bacillus subtilis at 300 ug/ml after 24 hrs by agar well diffusion method; conditions: read-out: DIZ
[39] = system: Escherichia coli; experiment: Antibacterial activity against Escherichia coli ATCC 8739 at 300 ug/ml after 24 hrs by agar well diffusion method; conditions: ATCC 8739, 24 h, read-out: DIZ
[40] = system: Bacillus subtilis; experiment: Antibacterial activity against Bacillus subtilis at 50 ug/ml after 24 hrs by agar well diffusion method; conditions: read-out: DIZ
[41] = system: Bacillus subtilis; experiment: Antibacterial activity against Bacillus subtilis at 500 ug/ml after 24 hrs by agar well diffusion method; conditions: read-out: DIZ
[42] = system: Fusarium oxysporum; experiment: Antifungal activity against Fusarium oxysporum after 72 hrs by agar well diffusion method
[43] = system: Aspergillus niger; experiment: Antifungal activity against Aspergillus niger at 300 ug/ml after 72 hrs by agar well diffusion method; conditions: read-out: DIZ
[44] = system: Klebsiella pneumoniae; experiment: Antibacterial activity against Klebsiella pneumoniae at 300 ug/ml after 24 hrs by agar well diffusion method; conditions: read-out: DIZ
[45] = system: Fusarium oxysporum; experiment: Antifungal activity against Fusarium oxysporum at 200 ug/ml after 72 hrs by agar well diffusion method; conditions: read-out: DIZ
[46] = system: Aspergillus flavus; experiment: Antifungal activity against Aspergillus flavus at 50 ug/ml after 72 hrs by agar well diffusion method; conditions: read-out: DIZ
[47] = system: Bacillus subtilis; experiment: Antibacterial activity against Bacillus subtilis at 200 ug/ml after 24 hrs by agar well diffusion method; conditions: read-out: DIZ
[48] = system: Klebsiella pneumoniae; experiment: Antibacterial activity against Klebsiella pneumoniae at 100 ug/ml after 24 hrs by agar well diffusion method; conditions: read-out: DIZ

`COc1ccc2[nH]cc(C=C3C(=O)OC(C)(C)OC3=O)c2c1` was tested, and the zone of inhibition at 300 µg/mL [1] was 24 mm, the zone of inhibition at 500 µg/mL [2] was 24 mm and the MIC [3] was 10 µg/mL (≈ 33.2 µM). For the same compound, the MIC [4] was 20 µg/mL (≈ 66.4 µM), the zone of inhibition at 50 µg/mL [5] was 10 mm and the zone of inhibition at 500 µg/mL [6] was 31 mm. For the same compound, the MIC [7] was 30 µg/mL (≈ 99.6 µM), the zone of inhibition at 100 µg/mL [8] was 15 mm and the zone of inhibition at 200 µg/mL [9] was 12 mm. It also gave a zone of inhibition at 200 µg/mL [10] of 17 mm, a zone of inhibition at 100 µg/mL [11] of 15 mm and a zone of inhibition at 300 µg/mL [12] of 24 mm. It also gave a zone of inhibition at 300 µg/mL [13] of 18 mm, a zone of inhibition at 200 µg/mL [14] of 15 mm and a zone of inhibition at 100 µg/mL [15] of 12 mm. It also gave a zone of inhibition at 100 µg/mL [16] of 9 mm, a zone of inhibition at 200 µg/mL [17] of 15 mm and an MIC [18] of 20 µg/mL (≈ 66.4 µM). The zone of inhibition at 500 µg/mL [19] was 22 mm, the zone of inhibition at 100 µg/mL [20] was 15 mm and the zone of inhibition at 50 µg/mL [21] was 11 mm. For the same compound, the MIC [22] was 35 µg/mL (≈ 116 µM), the zone of inhibition at 500 µg/mL [23] was 33 mm and the zone of inhibition at 200 µg/mL [24] was 19 mm. The zone of inhibition at 500 µg/mL [25] was 28 mm, the zone of inhibition at 100 µg/mL [26] was 12 mm and the zone of inhibition at 500 µg/mL [27] was 30 mm. The zone of inhibition at 50 µg/mL [28] was 10 mm, the MIC [29] was 10 µg/mL (≈ 33.2 µM) and the zone of inhibition at 50 µg/mL [30] was 8 mm. The zone of inhibition at 100 µg/mL [31] was 9 mm, the zone of inhibition at 500 µg/mL [32] was 34 mm and the MIC [33] was 25 µg/mL (≈ 83 µM). For the same compound, the zone of inhibition at 50 µg/mL [34] was 10 mm, the zone of inhibition at 300 µg/mL [35] was 13 mm and the zone of inhibition at 200 µg/mL [36] was 20 mm. For the same compound, the zone of inhibition at 50 µg/mL [37] was 7 mm, the zone of inhibition at 300 µg/mL [38] was 14 mm and the zone of inhibition at 300 µg/mL [39] was 22 mm. For the same compound, the zone of inhibition at 50 µg/mL [40] was 4 mm, the zone of inhibition at 500 µg/mL [41] was 22 mm and the MIC [42] was 25 µg/mL (≈ 83 µM). For the same compound, the zone of inhibition at 300 µg/mL [43] was 14 mm, the zone of inhibition at 300 µg/mL [44] was 25 mm and the zone of inhibition at 200 µg/mL [45] was 18 mm. The zone of inhibition at 50 µg/mL [46] was 5 mm, the zone of inhibition at 200 µg/mL [47] was 11 mm and the zone of inhibition at 100 µg/mL [48] was 16 mm.
